One data set relates to tumor cell models. The note with it: cited from earlier work.
The test system of the next data set is bladder cancer cells. Conditions: cited from earlier work.
The subject of data set [1] is shRNA against Luciferase mRNA. Briefly: GL-3 luciferase reporter in cells expressing shRNA against luciferase. Format: cell-based. Conditions: FIG. 5. The source says: In this example, a luciferase reporter construct GL-3 was transfected into the cells expressing shRNA against Luciferase mRNA.
The subject of another data set is RNAi-293-EGFP/RFP cells. Briefly: dose-response of GFP/RFP signal ratio in RNAi-293-EGFP/RFP cells. It is filed as cell-based. Conditions: at 5 μM; 48 hours; versus Enoxacin 50 μM and 100 μM. As to the method:
FIGS. 11A-11D show drug dose-responses for representative metal/Fe chelators. RNAi-293-EGFP/RFP cells were treated with each compound for 48 hours and the GFP/RFP signal ratio was plotted for relative RNAi-enhancing activity (%) using E50 (Enoxacin at 50 μM) as 100% activity.
An additional chemical library screen was performed to identify enhancers and suppressors of RNAi activity. In this screen, RNAi-293-EGFP cells were treated with compounds from a chemical library and endogenous RNAi activity was measured by GFP readout. Four particular compounds were identified in this screen. Further, all four compounds identified in this screen have metal/Fe chelating ability.
These four compounds were further tested by obtaining a drug dose-response curve for each compound at a wide range of concentrations in RNAi-293-EGFP/RFP. After 48 hours, GFP signals were measured by SpectraMax M2^e (Molecular Devices Corporation, Sunnyvale, Calif.). The GFP signals were then normalized over RFP signals to account for variability of cell numbers among wells and then plotted for relative RNAi-enhancing activity, which is set to 100% for a known RNAi-enhancing small molecule, e.g., Enoxacin at 50 μM.

Data set [2] has as its system Clone#3, 293-EGFP-siGFP cells. Put plainly: plate-reader chemical library screen, GFP signal in Clone#3 cells. It is filed as cell-based, human. Conditions: 50 mM RNAi-E alone. The source says: Further, in some embodiments, additional screens using the same library can be performed to identify other modulators of the siRNA and the miRNA pathways. In some embodiments, instead of examining the GFP signal visually under a microscope, the GFP signal can be quantified using an automatic plate reader. In such embodiments, two additional rounds of screening can be performed. In the first round of screening, the clones can be treated with compounds from a library, e.g., The Spectrum Collection, alone and the GFP level can be quantified after a period of time, e.g., 48 hours. In the second round of screening, the clones can be treated with compounds from a library, e.g., The Spectrum Collection, in the presence of 50 μM RNAi-E, i.e., enoxacin. This assay enables compounds that can modulate the activity of RNAi-E to be identified.
(§1) The presently disclosed chemical library also was screened using a plate reader to quantify the GFP signal intensity. The following screens were conducted: (1) repeating chemical screen using plate reader to quantify the GFP signal (50 mM each drug); (2) treating cells with 50 mM RNAi-I (30 mM each additional drug); and treating cells with […] (30 mM each additional drug).
(§2) For each screen, two types of cells were used: Clone#3 and EGFP. Clone#3 cells are 293-EGFP-siGFP and could be used to identify the modulators of the RNAi pathway. EGFP cells are 293-EGFP only and were used as a control to eliminate the compounds that could kill the cells or interfere GFP signals that are not related to RNAi pathway. The results for each screen are summarized in Table 2 and Table 3, respectively.
(§3) In these three screens, compounds were identified that could either enhance or inhibit RNAi activity in Clone#3, but had no effect on EGFP cells, which would indicate that these compounds might specifically work on RNAi pathway. The modulation of RNAi activity by these compounds was calculated as the percentage of GFP signal to Clone#3 control cells.

The next data set relates to miR-125a. Put plainly: Lin28 3'-UTR luciferase reporter in cells expressing miR-125a. Format: cell-based. The source says: Referring now to FIG. 8, the 3′-UTR of Lin28 mRNA, a target mRNA of miR-125a, was inserted into the 3′ end of luciferase reporter gene. Lin28-Del is the construct without the target sequence of miR-125a. Lin28 or Lin28-Del was transfected into cells expressing miR-125a. Although RNAi-E had no effect on Lin28-Del, the translation of Lin28 was suppressed by the expression of miR-125a.
On the technique in general: Reporter assays use an easily measured gene product as a stand-in for the process of interest.

Data set [3] deals with siRNA-mediated mRNA degradation. Briefly: cell-based reporter screen: human 293 cells stably expressing GFP plus siRNA hairpin against GFP. Conditions: pilot screen of The Spectrum Collection; FIG. 3, FIG. 4. The procedure: FIG. 2 discloses one embodiment of the cell-based reporter system of the invention. In this example, a human 293-cell line stably expressing a reporter gene, GFP, was used. This cell line was further transfected with a construct that expresses siRNA hairpin against GFP, which can decrease the level of GFP expression. Individual clones were isolated with greatly (although not completely) reduced GFP expression.
Using the above-identified clones, a screen was performed using The Spectrum Collection (MicroSource Discovery Systems, Inc., Gaylordsville, Conn., United States of America), which contains 2000 biologically active and structurally diverse compounds from libraries of known drugs, experimental bioactives, and pure natural products. For example, in one embodiment, a pilot screen of this library identified one inhibitor and one enhancer of siRNA-mediated mRNA degradation.
To identify the chemical compounds that modulate the siRNA and miRNA pathway, a screening strategy was used. A human 293-cell line stably expressing a reporter gene, GFP, was used. This cell line was further transfected with a construct that expresses siRNA hairpin against GFP, which could knock down the expression of GFP. […] Using these clones, a screen was performed using The Spectrum Collection, which contains 2000 biologically active and structurally diverse compounds from libraries of known drugs, experimental bioactives, and pure natural products.
Human 293 cells stably expressing a reporter gene, GFP, were further transfected with a construct that expresses an siRNA hairpin against GFP, which results in the knock-down of the expression of GFP. Transfected cells containing the siRNA suppressed GPF expression were split and then treated with an effective amount of enoxacin (FIG. 4, second panel) and were grown for a period of 24-48 hours.

A further data set concerns EGFP, 293-EGFP cells. Put plainly: plate-reader chemical library screen, GFP signal in control EGFP cells. Conditions: GFP signal; 50 mM RNAi-E. It is filed as cell-based, human. The procedure: as §1, §2, §3
In a further data set the test system is miR-30a-3p. Briefly: miRNA sensor Luc-T30 dual luciferase assay. It is filed as cell-based. The note with it: endogenously expressed miR-30; FIG. 6, FIG. 7. The source says: (A) Design of a siRNA duplex against miR-30a precursor (siRNA-p) and a control siRNA duplex (siRNA-c). The miR-30a precursor is provided as SEQ ID NO:1. The siRNA target region is represented by nucleotides 21-40 of SEQ ID NO:1. The siRNA-p is provided as SEQ ID NO:2 and the siRNA-c is provided as SEQ ID NO:3. The double stranded siRNA is shown on the bottom and predicted pairing between one siRNA strand (blue) and the precursor target (green).
In FIG. 6, top left panel, the blue arrowheads in Luc-T30 indicate artificial target sequence against miR-30a-3p. Luc-AT30 has an artificial sequence complementary to that in Luc-T30. […] Relative luciferase activity was calculated by dividing the reporter (Firefly) luciferase activity with co-transfected Renilla luciferase activity. Luciferase activity was decreased by transfecting Luc-T30 in HepG2 (orange bars) without changes in the amount of its mRNA (blue bars). Error bars represent the standard deviation (SD) of three triplicate experiments. […] Error bars represent the standard deviation (SD) from three triplicate experiments. **P=0.004; *****P=0.00001.
This reporter contains the target sequence of miR-30. In the miR-30 system, the endogenously expressed miR-30 was used and, in this cell line, miR-30 has been processed completely. Thus, the addition of enoxacin had no effect.

Where “and” joins values, the source holds several entries; their conditions need not be identical. Equal entries are not always repeated. Entries after “also recorded” stand apart in the source; their conditions may differ.

Consider `c1ccc(CNC2CC(NCc3ccccn3)CC(NCc3ccccn3)C2)nc1` (stereo not shown) [Tachpyridine, tachpyridine], for which the anti-proliferative activity entry with tumor cell models is on record as “anti-proliferative activity”. For the same compound, in the data set on bladder cancer cells, the ferritin synthesis result is “inhibit” and the “proliferation of bladder cancer cells in culture” value is on record as “inhibit”.

Regarding `O=C(O)c1cn(C2CC2)c2cc(N3CCNCC3)c(F)cc2c1=O` [ciprofloxacin], in [1], the “knock-down efficiency of shRNA against luciferase mRNA” value is “increased the knock-down efficiency” and the “siRNA-mediated mRNA degradation” value is “enhance siRNA-mediated mRNA degradation”.

As to `O=C(N/N=C/c1c(O)ccc2ccccc12)c1ccncc1` [compound 311, 2-hydroxy-1-naphthylaldehyde isonicotinoyl hydrazone], the anti-proliferative activity entry in the data set with tumor cell models was “anti-proliferative activity; also recorded: anti-proliferation activity”. For the same compound, the “RNAi-enhancing activity relative to Enoxacin” value in the data set with RNAi-293-EGFP/RFP cells is “more effective than Enoxacin”.

Take `CCn1cc(C(=O)O)c(=O)c2cc(F)c(N3CCNCC3)nc21` [enoxacin]: in [2], the “Clone#3, 293-EGFP-siGFP cells GFP signal intensity with RNAi-E” value was 20289248 and 16615771 and 18695953 and 20015152. Further, in the data set on miR-125a (Lin28 construct, FIG. 8), the “suppression of the translation of Lin28 by miR-125a” value is “further enhanced this suppression”. Also, in the data set with miR-125a (construct without the target sequence of miR-125a), the “effect on Lin28-Del” value is recorded as “no effect”. Also, in data set [1], the “knock-down efficiency of shRNA against luciferase mRNA” value is “increased the knock-down efficiency”. The “siRNA-mediated mRNA degradation and gene knock-down” value in [3] was “enhance siRNA-mediated mRNA degradation and gene knock-down”. Moreover, the “EGFP, 293-EGFP cells RNAi-E alone” value in the data set on EGFP, 293-EGFP cells is 177574932 and 1.78E+08 and 229622488 and 212666320 and 2.13E+08 and 138649048. Also, the “miRNA-mediated translational suppression of Luc-T30 reporter” value (“miRNA-mediated translational suppression” for short) with miR-30a-3p is recorded as “no effect”.

For the compound “siRNA-c: control siRNA duplex, SEQ ID NO:3 (UGGUAGCAGUCAUGGCACATT; chemistry not given here)”, the “miRNA-mediated translational suppression” value with miR-30a-3p was “no effect”.

Turning to “siRNA-p: siRNA duplex against miR-30a precursor, SEQ ID NO:2 (UGGAAGCUGUGAAGCCACATT; chemistry not given here)”, the “miRNA-mediated translational suppression” value in the data set on miR-30a-3p was “reversed the translational suppression”.

Source of the values: US20120071539A1, “COMPOUNDS AND METHODS FOR MODULATING THE SILENCING OF A POLYNUCLEOTIDE OF INTEREST” (Emory University, priority 2006, published 2012).
